Data as given in ChEMBL document CHEMBL5104103 (J Med Chem, 2022).
In brackets after ≈: the same amount, converted by molar mass.

Columns and labels:
[1] = Permeability across basolateral to apical membrane in human Caco-2 cells; assay type: ADME, cell-based; details: read-out: permeability
[2] = Inhibition of anti-IgM-stimulated CD20+ B cell activation in human whole blood assessed as measuring CD69 expression level pretreated for 1 hr followed by anti-IgM stimulation measured after 18 hrs by flow cytometry
[3] = Clearance in human liver S9 fraction assessed as measuring per mg protein by LCMS/MS analysis; assay type: ADME, subcellular; details: read-out: CLH
[4] = Solubility of compound in PBS at pH 7 by LCMS/MS analysis; assay type: physicochemical
[5] = Permeability across apical to basolateral membrane in human Caco-2 cells; assay type: ADME, cell-based; details: read-out: permeability
[6] = biological target: Voltage-gated inwardly rectifying potassium channel KCNH2 (Homo sapiens, UniProt Q12809); assay: Inhibition of hERG; assay type: toxicity
Chain of Voltage-gated inwardly rectifying potassium channel KCNH2 (Q12809 whole entry): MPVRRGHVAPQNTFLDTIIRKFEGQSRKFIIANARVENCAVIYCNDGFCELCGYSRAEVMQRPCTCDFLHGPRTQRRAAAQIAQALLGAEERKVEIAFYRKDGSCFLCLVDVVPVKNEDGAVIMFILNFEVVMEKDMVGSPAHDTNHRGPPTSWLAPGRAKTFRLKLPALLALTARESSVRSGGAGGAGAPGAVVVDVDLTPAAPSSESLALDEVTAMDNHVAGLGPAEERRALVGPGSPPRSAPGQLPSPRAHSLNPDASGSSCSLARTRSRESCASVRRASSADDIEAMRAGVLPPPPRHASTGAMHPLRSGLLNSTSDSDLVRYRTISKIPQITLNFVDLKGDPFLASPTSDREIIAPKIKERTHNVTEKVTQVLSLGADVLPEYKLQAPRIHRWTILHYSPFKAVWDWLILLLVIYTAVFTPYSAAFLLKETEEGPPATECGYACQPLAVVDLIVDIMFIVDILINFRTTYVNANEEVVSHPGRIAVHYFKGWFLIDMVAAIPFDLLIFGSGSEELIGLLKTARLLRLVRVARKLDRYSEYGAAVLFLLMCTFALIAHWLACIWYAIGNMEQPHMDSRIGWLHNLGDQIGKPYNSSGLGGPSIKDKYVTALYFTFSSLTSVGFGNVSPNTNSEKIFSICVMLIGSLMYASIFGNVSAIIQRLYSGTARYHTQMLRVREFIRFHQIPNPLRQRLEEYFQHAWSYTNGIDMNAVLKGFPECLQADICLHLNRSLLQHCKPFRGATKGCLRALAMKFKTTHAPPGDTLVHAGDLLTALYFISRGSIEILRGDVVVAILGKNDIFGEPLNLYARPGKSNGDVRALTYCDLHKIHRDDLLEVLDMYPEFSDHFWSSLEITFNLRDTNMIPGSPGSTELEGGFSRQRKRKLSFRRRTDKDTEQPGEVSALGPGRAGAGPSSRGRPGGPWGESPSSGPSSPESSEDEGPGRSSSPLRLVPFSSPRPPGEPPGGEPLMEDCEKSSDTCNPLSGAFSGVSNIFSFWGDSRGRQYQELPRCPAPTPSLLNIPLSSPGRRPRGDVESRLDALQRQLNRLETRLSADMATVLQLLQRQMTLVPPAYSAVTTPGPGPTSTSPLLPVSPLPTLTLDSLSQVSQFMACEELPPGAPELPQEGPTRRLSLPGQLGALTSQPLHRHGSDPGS

[7] = Oral bioavailability in rat at 20 mg/kg; assay type: ADME, organism-based; details: in vivo
[8] = AUC in rat at 20 mg/kg, po or 2 mg/kg, iv; assay type: ADME, organism-based; design: dose 20 mg/kg, route po; details: in vivo, read-out: AUC
[9] = Clearance in rat at 2 mg/kg, iv; assay type: ADME, organism-based; details: in vivo
[10] = Cmax in rat at 20 mg/kg, po or 2 mg/kg, iv; assay type: ADME, organism-based; design: dose 20 mg/kg, route po; details: in vivo
[11] = Drug concentration in plasma of collagen-induced arthritis Lewis rat model 20 mg/kg measured after 24 hrs post-collection of plasma; assay type: ADME, organism-based; details: in vivo, BLD = below limit of detection
[12] = biological target: T1, Cytoplasmic tyrosine-protein kinase BMX (Homo sapiens, UniProt P51813); assay: Inhibition of BMX (unknown origin) using peptide substrate in presence of ATP
T1 sequence (P51813 whole entry): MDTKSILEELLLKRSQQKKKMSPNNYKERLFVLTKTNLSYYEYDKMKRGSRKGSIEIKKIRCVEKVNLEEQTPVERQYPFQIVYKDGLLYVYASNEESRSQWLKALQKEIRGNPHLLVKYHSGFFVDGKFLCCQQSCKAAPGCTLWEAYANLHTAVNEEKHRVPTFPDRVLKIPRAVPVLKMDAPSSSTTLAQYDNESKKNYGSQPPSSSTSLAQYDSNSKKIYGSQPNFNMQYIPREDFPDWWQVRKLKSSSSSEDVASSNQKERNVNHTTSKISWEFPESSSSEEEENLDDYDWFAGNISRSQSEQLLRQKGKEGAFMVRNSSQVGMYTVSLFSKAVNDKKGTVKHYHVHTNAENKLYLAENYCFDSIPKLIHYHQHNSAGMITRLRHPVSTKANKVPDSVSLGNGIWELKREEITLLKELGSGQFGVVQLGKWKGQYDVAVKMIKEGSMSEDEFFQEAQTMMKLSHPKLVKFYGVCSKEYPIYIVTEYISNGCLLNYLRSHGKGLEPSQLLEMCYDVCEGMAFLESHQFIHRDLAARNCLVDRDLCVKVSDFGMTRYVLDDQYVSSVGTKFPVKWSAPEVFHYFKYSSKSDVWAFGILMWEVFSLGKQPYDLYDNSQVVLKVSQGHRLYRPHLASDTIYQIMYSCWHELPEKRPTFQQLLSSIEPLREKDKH

[13] = Drug concentration in plasma of collagen-induced arthritis Lewis rat model 20 mg/kg measured after 1 hr post-collection of plasma; assay type: ADME, organism-based
[14] = biological target: T2, Tyrosine-protein kinase Tec (Homo sapiens, UniProt P42680); assay: Inhibition of TEC (unknown origin) using peptide substrate in presence of ATP
T2 sequence (P42680 whole entry): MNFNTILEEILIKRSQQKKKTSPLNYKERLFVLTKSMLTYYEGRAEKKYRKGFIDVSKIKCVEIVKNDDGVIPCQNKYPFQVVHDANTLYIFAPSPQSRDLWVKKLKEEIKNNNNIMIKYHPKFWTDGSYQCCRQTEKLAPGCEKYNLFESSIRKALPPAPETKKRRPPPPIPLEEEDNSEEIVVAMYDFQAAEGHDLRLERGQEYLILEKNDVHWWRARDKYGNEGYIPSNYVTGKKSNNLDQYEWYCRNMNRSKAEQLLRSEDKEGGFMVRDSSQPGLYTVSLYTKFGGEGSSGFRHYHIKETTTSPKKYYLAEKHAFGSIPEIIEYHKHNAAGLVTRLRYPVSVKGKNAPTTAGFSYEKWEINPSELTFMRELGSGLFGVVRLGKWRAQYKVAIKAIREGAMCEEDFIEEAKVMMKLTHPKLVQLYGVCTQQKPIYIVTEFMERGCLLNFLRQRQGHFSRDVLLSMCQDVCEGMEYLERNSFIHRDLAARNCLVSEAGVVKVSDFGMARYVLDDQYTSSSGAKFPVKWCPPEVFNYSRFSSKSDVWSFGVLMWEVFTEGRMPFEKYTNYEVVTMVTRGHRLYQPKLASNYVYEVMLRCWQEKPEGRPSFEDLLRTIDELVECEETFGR

[15] = Drug concentration in plasma of collagen-induced arthritis Lewis rat model 20 mg/kg measured after 4 hrs post-collection of plasma; assay type: ADME, organism-based
[16] = Drug concentration in plasma of collagen-induced arthritis Lewis rat model 20 mg/kg measured after 12 hrs post-collection of plasma; assay type: ADME, organism-based
[17] = biological target: Tyrosine-protein kinase Blk (Homo sapiens, UniProt P51451); assay: Inhibition of BLK (unknown origin) using peptide substrate in presence of ATP
Chain of Tyrosine-protein kinase Blk (P51451 whole entry): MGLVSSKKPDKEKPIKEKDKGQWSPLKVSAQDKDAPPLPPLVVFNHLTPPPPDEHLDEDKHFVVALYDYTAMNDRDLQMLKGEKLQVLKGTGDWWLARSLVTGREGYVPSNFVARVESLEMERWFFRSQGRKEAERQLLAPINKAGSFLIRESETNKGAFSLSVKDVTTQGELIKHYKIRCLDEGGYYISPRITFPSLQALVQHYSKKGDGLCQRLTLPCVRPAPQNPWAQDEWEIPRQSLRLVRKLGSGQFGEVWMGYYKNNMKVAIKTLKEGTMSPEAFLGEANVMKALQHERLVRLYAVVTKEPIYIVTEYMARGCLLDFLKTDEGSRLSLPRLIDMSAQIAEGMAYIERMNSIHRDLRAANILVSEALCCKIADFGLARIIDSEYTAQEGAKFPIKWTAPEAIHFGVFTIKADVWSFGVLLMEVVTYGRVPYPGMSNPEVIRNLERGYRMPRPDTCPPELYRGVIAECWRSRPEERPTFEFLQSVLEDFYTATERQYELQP

[18] = biological target: T3, Tyrosine-protein kinase TXK (Homo sapiens, UniProt P42681); assay: Inhibition of RLK (unknown origin) using peptide substrate in presence of ATP
T3 sequence (P42681 whole entry): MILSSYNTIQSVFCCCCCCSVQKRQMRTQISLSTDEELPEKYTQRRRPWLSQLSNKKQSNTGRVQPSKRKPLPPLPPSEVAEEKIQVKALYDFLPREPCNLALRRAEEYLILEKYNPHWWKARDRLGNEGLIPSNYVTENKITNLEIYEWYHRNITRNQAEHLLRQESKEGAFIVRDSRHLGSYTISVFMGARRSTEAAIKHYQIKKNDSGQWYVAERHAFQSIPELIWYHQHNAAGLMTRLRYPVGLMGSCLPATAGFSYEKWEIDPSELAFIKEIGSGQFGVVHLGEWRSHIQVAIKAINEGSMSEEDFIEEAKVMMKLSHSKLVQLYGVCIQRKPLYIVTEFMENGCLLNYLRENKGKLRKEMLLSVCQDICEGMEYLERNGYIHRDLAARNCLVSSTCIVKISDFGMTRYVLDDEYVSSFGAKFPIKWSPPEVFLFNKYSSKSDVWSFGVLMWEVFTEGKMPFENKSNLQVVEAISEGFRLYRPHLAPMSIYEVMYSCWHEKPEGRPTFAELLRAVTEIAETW

| Compound | Papp B→A [1] [×10⁻⁶ cm/s] | IC50 [2] [nM] | microsomal CLint [3] [µL/min/mg] | solubility [4] [µM] | Papp A→B [5] [×10⁻⁶ cm/s] | other results |
| --- | --- | --- | --- | --- | --- | --- |
| COCCN1CCN(C(C)(C)/C=C(\C#N)C(=O)N2CCC[C@@H](n3nc(-c4ccc(Oc5ccccc5)cc4F)c4c(N)ncnc43)C2)CC1 | 6 | 169 | 49 | 210 (≈ 140 µg/mL) | 0.2 | – |
| C[C@@H]1CN(C(C)(C)/C=C(\C#N)C(=O)N2CCC[C@@H](n3nc(-c4ccc(Oc5ccccc5)cc4F)c4c(N)ncnc43)C2)C[C@H](C)N1 | – | 442 | – | – | – | – |
| CC(C)(/C=C(\C#N)C(=O)N1CCC[C@@H](n2nc(-c3ccc(Oc4ccccc4)cc3F)c3c(N)ncnc32)C1)N1CCNC(=O)C1 | 25.8 | 381 | – | – | 1 | – |
| CC(C)(N)/C=C(\C#N)C(=O)N1CCC[C@@H](n2nc(-c3ccc(Oc4ccccc4)cc3F)c3c(N)ncnc32)C1 | – | 360 | – | – | – | – |
| CC1(/C=C(\C#N)C(=O)N2CCC[C@@H](n3nc(-c4ccc(Oc5ccccc5)cc4F)c4c(N)ncnc43)C2)COC1 | – | 224 | – | – | – | – |
| N#C/C(=C/C1CC1)C(=O)N1CCC[C@@H]1Cn1nc(-c2ccc(Oc3ccccc3)cc2F)c2c(N)ncnc21 | – | 196 | – | – | – | – |
| CC(=O)N1CCN(C(C)(C)/C=C(\C#N)C(=O)N2CCC[C@@H](n3nc(-c4ccc(Oc5ccccc5)cc4F)c4c(N)ncnc43)C2)CC1 | 22 | 193 | – | 31 (≈ 20.2 µg/mL) | 0.6 | – |
| CC(C)(/C=C(\C#N)C(=O)N1CCC[C@@H](n2nc(-c3ccc(Oc4ccccc4)cc3F)c3c(N)ncnc32)C1)N1CCNCC1 | 3.4 | 401 | – | 238 (≈ 145 µg/mL) | 0.07 | – |
| CC(C)(/C=C(\C#N)C(=O)N1CCC[C@@H](n2nc(-c3ccc(Oc4ccccc4)cc3F)c3c(N)ncnc32)C1)CO | – | 821 | – | – | – | – |
| COC(=O)N1CCN(C(C)(C)/C=C(\C#N)C(=O)N2CCC[C@@H](n3nc(-c4ccc(Oc5ccccc5)cc4F)c4c(N)ncnc43)C2)CC1 | 24 | 179 | 68 | 1.1 (≈ 0.735 µg/mL) | 3.2 | bioavailability [7]: 11.5%; AUC [8]: 432 ng·h/mL; clearance [9]: 89 mL/min/kg; Cmax [10]: 142 ng/mL |

These reach a lower IC50 [2]. Values come first.

| Papp B→A [1] [×10⁻⁶ cm/s] | IC50 [2] [nM] | microsomal CLint [3] [µL/min/mg] | solubility [4] [µM] | Papp A→B [5] [×10⁻⁶ cm/s] | Compound | other results |
| --- | --- | --- | --- | --- | --- | --- |
| 2.5 | 128 | 14 | 263 (≈ 171 µg/mL) | 0.3 | C[C@@H]1CN(C(C)(C)/C=C(\C#N)C(=O)N2CCC[C@@H](n3nc(-c4ccc(Oc5ccccc5)cc4F)c4c(N)ncnc43)C2)C[C@H](C)N1C | inhibition (INH) [6]: Active; bioavailability [7]: 67%; AUC [8]: 2460 ng·h/mL; clearance [9]: 91 mL/min/kg; Cmax [10]: 392 ng/mL |
| 5.3 | 123 | 23 | 125 (≈ 83.2 µg/mL) | 1.7 | CC(C)(/C=C(\C#N)C(=O)N1CCC[C@@H](n2nc(-c3ccc(Oc4ccccc4)cc3F)c3c(N)ncnc32)C1)N1CCN(C2COC2)CC1 [RILZABRUTINIB] | bioavailability [7]: 12.3%; AUC [8]: 622 ng·h/mL; Cp [11]: Bld; IC50 [12]: 1 nM; clearance [9]: 66 mL/min/kg; concentration at 1 h [13]: 128 ng/mL; IC50 [14]: 0.8 nM; concentration at 4 h [15]: 106 ng/mL; concentration at 12 h [16]: 4.6 ng/mL; IC50 [17]: 6.3 nM; Cmax [10]: 270 ng/mL; IC50 [18]: 1.2 nM |
| – | 158 | – | – | – | CN(C)C(C)(C)/C=C(\C#N)C(=O)N1CCC[C@@H](n2nc(-c3ccc(Oc4ccccc4)cc3F)c3c(N)ncnc32)C1 | – |
| 5.5 | 130 | 80 | 90 (≈ 57.4 µg/mL) | 0.4 | CN1CCN(C(C)(C)/C=C(\C#N)C(=O)N2CCC[C@@H](n3nc(-c4ccc(Oc5ccccc5)cc4F)c4c(N)ncnc43)C2)CC1=O | bioavailability [7]: 10.9%; AUC [8]: 528 ng·h/mL; clearance [9]: 73 mL/min/kg; Cmax [10]: 345 ng/mL |
| – | 16.7 | – | – | – | CC(C)(/C=C(\C#N)C(=O)N1CCC[C@@H](n2nc(-c3ccc(Oc4ccccc4)cc3F)c3c(N)ncnc32)C1)N1CCOCC1 | – |
